Reference: patent US20210220356A1, “DIHYDROPYRIMIDINE DERIVATIVES AND USES THEREOF IN THE TREATMENT OF HBV INFECTION OR OF HBV-INDUCED DISEASES” (Janssen Sciences Ireland Unlimited Company, priority 2018, published 2021)
Read-outs that look alike come from different tables or passages of the source.

How the values were obtained:
HBV = HBV inhibitory activity in HepG2.2.15 cells (HBV DNA in culture medium by q-PCR); assay type: cell-based; conditions: HepG2.2.15 cells, 40,000 cells/well, 6 days of compound treatment, HBV DNA in culture medium by q-PCR, highest concentration 10 uM, read-out: EC50
Procedure: (§1) • HepG2.2.15 (the HepG2.2.15 cell line can be produced by transfection of the HepG2 cell line as described in Sells, Chen, and Acs 1987 (Proc. Natl. Acad. Sci. USA 84: 1005-1009), and the HepG2 cell line is available from ATCC® under number HB-8065™)
(§2) Seed the cell HepG2.2.15 cells into 96-well plate in 2% FBS culture medium at the density of 40,000 cells/well and 5,000 cells/well for HBV inhibitory activity and cytotoxicity determination, respectively. After seeding, incubate the cell plates at 37° C., 5% CO2 overnight. The next day, medium containing compounds is added to the cell to treat the cells for 6 days with medium refreshed once in the middle of the treatment. 8 dose points with 3 folds dilution of each compound were adopted and the highest concentration of the compounds is 10 uM and 100 uM for HBV inhibitory activity and cytotoxicity determination, respectively.
The HBV DAN change in the cell culture medium induced by the compounds is measured by q-PCR method. Briefly, the HBV DNA in the culture medium is extracted using QIAamp 96 DNA Blood Kit according to the manual and then quantified by q-PCR using the primers and probe in the table below.
(§3) EC50 and CC50 values are calculated by the GRAPHPAD PRISM software.

HepG2.2.15 cells = assay: Cytotoxicity determination in HepG2.2.15 cells (CCK-8); assay type: cell-based; conditions: HepG2.2.15 cells, 5,000 cells/well, 6 days of compound treatment, CCK-8 absorbance 450 nm, highest concentration 100 uM
Procedure: as §1, §2
After 6 days of compounds treatment, add 20 μl CCK-8 reagents to each well of cytotoxicity assay plates, incubate the plate at 37° C., 5% CO2 for 2.5 h and measure the absorbance at 450 nm wavelength, at the same time read the absorbance at 630 nm wavelength as reference.
as §3

[1] = Hepatitis B virus, HepG2.2.15, 144 h

Row | Compound | EC50 (HBV) | CC50 (HepG2.2.15 cells) | EC50 (HBV; [1])
1 | CCOC(=O)C1=C(C2CCc3nn(CC(C)(C)C(=O)O)cc3C2)NC(c2nccs2)=NC1c1ccc(F)c(F)c1Cl (single isomer, unassigned) [Compound 53b, 3-(5-(6-(2-Chloro-3,4-difluorophenyl)-5-(ethoxycarbonyl)-2-(thiazol-2-yl)-3,6-dihydropyrimidin-4-yl)-4,5,6,7-tetrahydro-2H-indazol-2-yl)-2,2-dimethylpropanoic acid] | 0.104 µM | 11.9 µM | –
2 | CCOC(=O)C1=C(C2CCc3nn(CC(C)(C)C(=O)O)cc3C2)NC(c2nccs2)=NC1c1ccc(F)c(F)c1Cl (single isomer, unassigned) [Compound 53c, 3-(5-(6-(2-Chloro-3,4-difluorophenyl)-5-(ethoxycarbonyl)-2-(thiazol-2-yl)-3,6-dihydropyrimidin-4-yl)-4,5,6,7-tetrahydro-2H-indazol-2-yl)-2,2-dimethylpropanoic acid] | < 0.0046 µM | 10.9 µM | –
3 | CCOC(=O)C1=C(C2CCc3oc(CCC(=O)O)nc3C2)NC(c2nccs2)=NC1c1ccc(F)c(F)c1Cl (single isomer, unassigned) [Compound 57f, 3-(5-(6-(2-Chloro-3,4-difluorophenyl)-5-(ethoxycarbonyl)-2-(thiazol-2-yl)-3,6-dihydropyrimidin-4-yl)-4,5,6,7-tetrahydrobenzo[d]oxazol-2-yl)propanoic acid] | 0.0908 µM | 12.6 µM | –
4 | CCOC(=O)C1=C(C2CCc3nc(CCC(=O)O)oc3C2)NC(c2nccs2)=NC1c1ccc(F)c(F)c1Cl (single isomer, unassigned) [Compound 58d, 3-(6-(6-(2-Chloro-3,4-difluorophenyl)-5-(ethoxycarbonyl)-2-(thiazol-2-yl)-3,6-dihydropyrimidin-4-yl)-4,5,6,7-tetrahydrobenzo[d]oxazol-2-yl)propanoic acid] | 0.0092 µM | 10.8 µM | –
5 | CCOC(=O)C1=C(C2CCc3sc(CCC(=O)O)nc3C2)NC(c2nccs2)=NC1c1ccc(F)c(F)c1Cl (single isomer, unassigned) [Compound 59f, 3-(5-(6-(2-Chloro-3,4-difluorophenyl)-5-(ethoxycarbonyl)-2-(thiazol-2-yl)-3,6-dihydropyrimidin-4-yl)-4,5,6,7-tetrahydrobenzo[d]thiazol-2-yl)propanoic acid] | 0.209 µM | 5.8 µM | –
6 | CCOC(=O)C1=C(C2CCc3nc(CCC(=O)O)sc3C2)NC(c2nccs2)=NC1c1ccc(F)c(F)c1Cl (single isomer, unassigned) [Compound 60c, 3-(6-(6-(2-Chloro-3,4-difluorophenyl)-5-(ethoxycarbonyl)-2-(thiazol-2-yl)-3,6-dihydropyrimidin-4-yl)-4,5,6,7-tetrahydrobenzo[d]thiazol-2-yl)propanoic acid] | 0.0135 µM | 5.5 µM | –
7 | CCOC(=O)C1=C(C2CCc3cn(CCC(=O)O)nc3C2)NC(c2nccs2)=NC1c1ccc(F)c(F)c1Cl (single isomer, unassigned) [Compound 61a, 3-(6-(6-(2-Chloro-3,4-difluorophenyl)-5-(ethoxycarbonyl)-2-(thiazol-2-yl)-3,6-dihydropyrimidin-4-yl)-4,5,6,7-tetrahydro-2H-indazol-2-yl)propanoic acid] | 0.0612 µM | 4.8 µM | –
8 | CCOC(=O)C1=C(C2CCc3cn(CCC(=O)O)nc3C2)NC(c2nccs2)=NC1c1ccc(F)c(F)c1Cl (single isomer, unassigned) [Compound 61c, 3-(6-(6-(2-Chloro-3,4-difluorophenyl)-5-(ethoxycarbonyl)-2-(thiazol-2-yl)-3,6-dihydropyrimidin-4-yl)-4,5,6,7-tetrahydro-2H-indazol-2-yl)propanoic acid] | 0.125 µM | 29 µM | –
9 | COC(=O)C1=C(C2CCc3[nH]ncc3C2)NC(c2nccs2)=NC1c1ccc(F)c(F)c1Cl (single isomer, unassigned) [Compound 65b, Methyl 4-(2-chloro-3,4-difluorophenyl)-6-(4,5,6,7-tetrahydro-1H-indazol-5-yl)-2-(thiazol-2-yl)-1,4-dihydropyrimidine-5-carboxylate] | 2.67 µM | 6.3 µM | –
10 | COC(=O)C1=C(C2CCc3nc([C@H]4C[C@H](C(=O)O)C4)sc3C2)NC(c2nccs2)=NC1c1ccc(F)c(F)c1Cl (single isomer, unassigned) [Compound 68b, (trans)-3-(-6-(-6-(2-chloro-3,4-difluorophenyl)-5-(methoxycarbonyl)-2-(thiazol-2-yl)-3,6-dihydropyrimidin-4-yl)-4,5,6,7-tetrahydrobenzo[d]thiazol-2-yl)cyclobutanecarboxylic acid] | – | 8.3 µM | 0.009 µM
11 | COC(=O)C1=C(C2CCc3nc([C@H]4C[C@H](C(=O)O)C4)sc3C2)NC(c2nccs2)=NC1c1ccc(F)c(F)c1Cl (single isomer, unassigned) [Compound 68c, (trans)-3-(6-(-6-(2-chloro-3,4-difluorophenyl)-5-(methoxycarbonyl)-2-(thiazol-2-yl)-3,6-dihydropyrimidin-4-yl)-4,5,6,7-tetrahydrobenzo[d]thiazol-2-yl)cyclobutanecarboxylic acid] | 0.00645 µM | 3.6 µM | –
12 | COC(=O)C1=C(C2CCc3nn(CCC(=O)O)cc3C2)NC(c2nccs2)=NC1c1ccc(F)c(F)c1Cl (single isomer, unassigned) [Compound 70d, 3-(-5-(6-(2-chloro-3,4-difluorophenyl)-5-(methoxycarbonyl)-2-(thiazol-2-yl)-3,6-dihydropyrimidin-4-yl)-4,5,6,7-tetrahydro-2H-indazol-2-yl)propanoic acid] | 0.00803 µM | 24.3 µM | –
13 | COC(=O)C1=C(C2CCc3nc([C@H]4C[C@H](C(=O)O)C4)oc3C2)NC(c2nccs2)=NC1c1ccc(F)c(F)c1Cl (single isomer, unassigned) [Compound 72c, (trans)-3-(6-(6-(2-Chloro-3,4-difluorophenyl)-5-(methoxycarbonyl)-2-(thiazol-2-yl)-3,6-dihydropyrimidin-4-yl)-4,5,6,7-tetrahydrobenzo[d]oxazol-2-yl)cyclobutanecarboxylic acid] | 0.0902 µM | 8.7 µM | –
14 | COC(=O)C1=C(C2CCc3nn(CCCC(=O)O)cc3C2)NC(c2nccs2)=NC1c1ccc(F)c(F)c1Cl (single isomer, unassigned) [Compound 74c, 4-(5-(6-(2-chloro-3,4-difluorophenyl)-5-(methoxycarbonyl)-2-(thiazol-2-yl)-3,6-dihydropyrimidin-4-yl)-4,5,6,7-tetrahydro-2H-indazol-2-yl)butanoic acid] | 0.0091 µM | 18.2 µM | –
15 | COC(=O)C1=C(C2CCc3nn(C(C)(C)CC(=O)O)cc3C2)NC(c2nccs2)=NC1c1ccc(F)c(F)c1Cl (single isomer, unassigned) [Compound 82c, 3-(5-(-6-(2-chloro-3,4-difluorophenyl)-5-(methoxycarbonyl)-2-(thiazol-2-yl)-3,6-dihydropyrimidin-4-yl)-4,5,6,7-tetrahydro-2H-indazol-2-yl)-3-methylbutanoic acid] | 0.0065 µM | 15.1 µM | –
16 | COC(=O)C1=C(C2CCc3nc([C@H]4CC[C@H](C(=O)O)CC4)oc3C2)NC(c2nccs2)=NC1c1ccc(F)c(F)c1Cl (single isomer, unassigned) [Compound 86b, (trans)-4-(6-(6-(2-chloro-3,4-difluorophenyl)-5-(methoxycarbonyl)-2-(thiazol-2-yl)-3,6-dihydropyrimidin-4-yl)-4,5,6,7-tetrahydrobenzo[d]oxazol-2-yl)cyclohexanecarboxylic acid] | – | 8.7 µM | 0.064 µM
17 | COC(=O)C1=C(C2CCc3nc([C@H]4CC[C@H](C(=O)O)CC4)oc3C2)NC(c2nccs2)=NC1c1ccc(F)c(F)c1Cl (single isomer, unassigned) [Compound 86d, (trans)-4-(6-(6-(2-chloro-3,4-difluorophenyl)-5-(methoxycarbonyl)-2-(thiazol-2-yl)-3,6-dihydropyrimidin-4-yl)-4,5,6,7-tetrahydrobenzo[d]oxazol-2-yl)cyclohexanecarboxylic acid] | 0.0614 µM | 4.3 µM | –
18 | CCOC(=O)C1=C(C2Cc3cn(CCC(=O)O)nc3C(C)(C)C2)NC(c2nccs2)=NC1c1ccc(F)c(F)c1Cl (stereo not drawn) [Compound 55c, 3-(5-(6-(2-chloro-3,4-difluorophenyl)-5-(ethoxycarbonyl)-2-(thiazol-2-yl)-3,6-dihydropyrimidin-4-yl)-7,7-dimethyl-4,5,6,7-tetrahydro-2H-indazol-2-yl)propanoic acid] | 0.0095 µM | 7.1 µM | –
